Measurements from patent US7972772B2, “KIF11 and method for diagnosing non-small cell lung cancer” (Oncotherapy Science, Inc., priority 2004, dated 2011).
No end group written: not given here.

What was measured:
A549 cells [1] = assay: Monastrol treatment of A549 cells, microscopy and time-lapse video-microscopy; format: cell-based, human; conditions: most non-mitotic cells
A549 cells [2] = assay: Nocodazole treatment of A549 cells, immunocytochemistry; format: cell-based, human; conditions: 10 μM, four hours
Excerpt: We also investigated the endogenous location of KOC1 and KIF11 particles on the ultrafine structure of microtubules bridging individual A549 cells by an immunocytochemical study, using affinity-purified anti-KOC1- or anti-KIF11 for primary antibody and Alexa594-labeled anti-rabbit IgG for secondary antibody (Molecular Probe) and anti-alpha-tubulin-FITC monoclonal antibody. […] Moreover, no particle was found on the residual structure between the cells. […] To further clarify the detailed mechanism by which the KOC1-KIF11 complex transports mRNAs in NSCLC cells, we have searched for other component(s) that might be interacting with KIF11. Immunoprecipitation with anti-KIF11 polyclonal antibody using a lysate of LC319 cells identified a 150-kDa protein, which was later determined to be a dynactin 1 (DCTN1; p150, glued homolog, Drosophila) by MALDI-TOF mass-spectrometric analysis. DCTN1 is the largest subunit of DCTN, which binds to the cytoplasmic motor-protein dynein and activates vesicle transport along microtubules (Holzbaur, E. L. & Tokito, M. K. Genomics 31, 398-399 (1996); Tokito, M. K. et al., Mol. Biol. Cell 7, 1167-1180 (1996)), or binds to KIF11 to probably participate in centrosome separation (Blangy, A. et al., J. Biol. Chem. 272, 19418-19424 (1997)). […]

[3] = molecular target: T1, endogenous GHSR1b and NTSR1 on LC319 cells (Homo sapiens, UniProt P30989+Q92847); assay: Receptor-ligand binding assay on LC319 cells
T1 construct: endogenous in cells; host or cells: LC319
Experimental: (§1) To further confirm binding of NMU-25 to the endogenous candidate receptors on the NSCLC cells, we performed receptor-ligand binding assay using the LC319 and PC-14 cells. Briefly, these cells trypsinized were seeded onto 96-well black-wall, clear-bottom microtiter plates 24 hours prior to the assay. The medium was removed and the cells were incubated with Cy5-NMU-25 with a 10-fold excess of unlabeled competitor. The plate was incubated in the dark for 24 hours at 37° C. and was scanned on the 8200 Cellular Detection System (Applied Biosystems). 8200 Analysis Software creates a digitized gray scale image, quantitates the amount of fluorescence bound on the surface of each cell, and enumerates the fluorescent cells.

[4] = molecular target: T2, endogenous GHSR1b and NTSR1 on PC-14 cells (Homo sapiens, UniProt P30989+Q92847); assay: Receptor-ligand binding assay on PC-14 cells
T2 construct: endogenous in cells; host or cells: PC-14
Experimental: as §1

GHSR1b = assay: Ligand-receptor binding assay, COS-7 cells transfected with GHSR1b; set-up: species or system human
Experimental: (§2) To identify direct binding of NMU-25 to its candidate receptors, GHSR1a, GHSR1b and NTSR1, the following experiments were performed. The entire coding region of each receptor gene was amplified by RT-PCR using primers
(§3) The products were digested with EcoR1 and BainH1 and cloned into appropriate sites of p3XFLAG-CMV10 vector (Sigma-Aldrich Co.). COS-7 cells were transfected with GHSR1b or NTSR1 expression plasmids using FuGENE6, as described above. Transfected COS-7 cells were cultured with 0.5 μM rhodamine-labeled NMU-25 peptide (NMU-25-rhodamine: Phoenix Pharmaceuticals. Inc.) for 12 hours, washed five times in PBS(−), and fixed in 4% paraformaldehyde solution for 60 min at room temperature. Then the cells were incubated with antibodies to FLAG-tagged GHSR1a, GHSR1b, or NTSR1 proteins (Sigma-Aldrich Co.), stained with a goat anti-mouse secondary antibody conjugated to FITC (Cappel) and viewed under laser-confocal microscopy (TCS SP2 AOBS: Leica Microsystems). […]
(§4) To confirm the binding of NMU-25 to the candidate receptors, flow-cytometric analysis was performed using the same series of COS-7 cells. […] The population of cells binding to rhodamine-labeled NMU-25 was determined by flow cytometry.

NTSR1 = assay: Ligand-receptor binding assay, COS-7 cells transfected with NTSR1; set-up: species or system human
Experimental: as §2, §3, §4

GHSR1b/NTSR1 = molecular target: T3, GHSR1b/NTSR1 (Homo sapiens, UniProt P30989+Q92847); assay: Intracellular Ca2+ mobilization assay in LC319 cells; format: cell-based
T3 construct: endogenous in cells; host or cells: LC319
T3 sequence (Q92847 1-289 isoform Q92847-2): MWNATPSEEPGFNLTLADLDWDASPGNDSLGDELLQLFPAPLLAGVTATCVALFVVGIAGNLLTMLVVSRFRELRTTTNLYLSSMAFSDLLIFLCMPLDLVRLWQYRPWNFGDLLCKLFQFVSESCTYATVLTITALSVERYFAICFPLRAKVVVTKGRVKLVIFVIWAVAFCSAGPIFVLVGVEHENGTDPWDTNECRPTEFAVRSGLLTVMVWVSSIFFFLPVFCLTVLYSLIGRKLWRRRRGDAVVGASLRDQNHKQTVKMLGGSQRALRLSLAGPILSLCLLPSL
T3 sequence (P30989 whole entry): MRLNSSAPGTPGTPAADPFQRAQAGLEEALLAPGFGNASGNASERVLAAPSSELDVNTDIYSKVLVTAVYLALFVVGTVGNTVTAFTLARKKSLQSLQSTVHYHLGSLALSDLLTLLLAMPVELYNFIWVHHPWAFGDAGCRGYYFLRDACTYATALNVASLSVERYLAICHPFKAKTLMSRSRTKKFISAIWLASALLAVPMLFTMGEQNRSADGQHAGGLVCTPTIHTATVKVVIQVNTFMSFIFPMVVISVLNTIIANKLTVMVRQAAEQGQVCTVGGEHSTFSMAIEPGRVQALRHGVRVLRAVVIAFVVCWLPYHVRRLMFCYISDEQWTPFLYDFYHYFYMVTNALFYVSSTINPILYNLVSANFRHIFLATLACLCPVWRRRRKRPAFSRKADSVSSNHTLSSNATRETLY
Experimental: Trypsinized LC319 cells were seeded onto poly-D-lysine coated 384-well black-wall, clear-bottom microtiter plate (1.0×10^4 cells/ml) 24 hours prior to assay. Cells were loaded for 1 hour with […] Fluo-4-AM fluorescent indicator dye in assay buffer (Hank's balanced salts solution, 20 mM HEPES, 2.5 mM probenecid), washed three times with assay buffer, and then returned to the incubator for 10 min before assay on a fluorometric imaging plate reader (FLIPR, Molecular Devices). Maximum change in fluorescence over base line was used to determine the response of the cells to the NMU-25 peptides stimulation.

FOXM1 = assay: Induction of FOXM1 in LC319 cells, semiquantitative RT-PCR; format: cell-based, human; conditions: LC319, 100 μM, versus BSA control
Experimental: Expression of the candidate genes was additionally detected by semiquantitative RT-PCR using mRNAs isolated at 72 and 96 hours from LC319 cells treated with 1 μM NMU-25 or BSA at the time point of 0 and 48 hours.
Therefore, we chose FOXM1 for further analysis. To determine specific induction of the FOXM1 by the NMU ligand-receptor signaling, LC319 cells expressing GHSR1b and NTSR1 were cultured in the presence of NMU-25 or BSA (control) at final concentrations of 100 μM in the culture media.

COS-7 cells = assay: Growth of COS-7 cells with NMU in the medium; format: cell-based; conditions: addition into the medium, dose-dependent
[5] = COS-7, NMU-25-rhodamine 0.5 μM, 12 hours

CCOC(=O)C1=C(C)NC(=S)NC1c1cccc(O)c1 (centres unmarked) [monastrol]
time to loss of protrusion and connection to adjacent cells, non-mitotic cells (A549 cells [1]): ≤ 2 h

COC(=O)Nc1nc2ccc(C(=O)c3cccs3)cc2[nH]1 [nocodazole]
effect on endogenous KOC1, KIF11 and microtubules (A549 cells [2]): collapse and aggregation of endogenous KOC1 and KIF11, along with the depolymerization of microtubules in the cytoplasm

Cy5-labeled NMU-25: Cy5-labeled NMU-25 peptide (FRVDEEFQSPFASQSRGYFLFRPRN; ends and bridges not checked; also: Cy5-labeled, site not given here)
binding to the cell surface [3]: detected binding
binding to the cell surface [4]: detected binding

NMU-25: NMU-25 peptide, ligand neuromedin U (FRVDEEFQSPFASQSRGYFLFRPRN)
co-localization with FLAG-tagged GHSR1b (confocal microscopy) (GHSR1b; [5]): located together on the cell membrane
co-localization with FLAG-tagged NTSR1 (confocal microscopy) (NTSR1; [5]): located together on the cell membrane
intracellular Ca2+ flux / mobilization (GHSR1b/NTSR1): but not Ca^2+ flux
expression of FOXM1 (FOXM1): higher expression of FOXM1

NMU: neuropeptide neuromedin U added into the medium (FRVDEEFQSPFASQSRGYFLFRPRN)
growth of COS-7 cells (COS-7 cells): promoted the growth

rhodamine-labeled NMU-25: rhodamine-labeled NMU-25 peptide (Phoenix Pharmaceuticals) (FRVDEEFQSPFASQSRGYFLFRPRN; ends and bridges not checked; also: rhodamine-labeled, site not given here)
binding to surface of COS-7 cells expressing GHSR1b (flow cytometry) (GHSR1b; dose dependent): binding
binding to surface of COS-7 cells expressing NTSR1 (flow cytometry) (NTSR1; dose dependent): binding
